Holding throughout (test): Kinase panel profiling at 1 µmol/L (MSA or IMAP), percentage inhibition
What all share (format): biochemical

In assay [1] the target is panel of 255 wild-type kinases (Homo sapiens, UniProt Q9NYY3). The settings on record: kinase PLK2; 1 µmol/L single concentration; read-out: %-inhibition at 1 µmol/L, PLK2.
The target in assay [2] is panel of 255 wild-type kinases (Homo sapiens, UniProt O95819). The note with it: kinase HGK; 1 µmol/L single concentration; read-out: %-inhibition at 1 µmol/L, HGK.
The target of assay [3] is panel of 255 wild-type kinases (Homo sapiens, UniProt P22694). The note with it: kinase PKACβ; 1 µmol/L single concentration; read-out: %-inhibition at 1 µmol/L, PKACβ.
The target in assay [4] is T1, panel of 255 wild-type kinases (Homo sapiens, UniProt P41743).
T1 sequence (P41743 1-596): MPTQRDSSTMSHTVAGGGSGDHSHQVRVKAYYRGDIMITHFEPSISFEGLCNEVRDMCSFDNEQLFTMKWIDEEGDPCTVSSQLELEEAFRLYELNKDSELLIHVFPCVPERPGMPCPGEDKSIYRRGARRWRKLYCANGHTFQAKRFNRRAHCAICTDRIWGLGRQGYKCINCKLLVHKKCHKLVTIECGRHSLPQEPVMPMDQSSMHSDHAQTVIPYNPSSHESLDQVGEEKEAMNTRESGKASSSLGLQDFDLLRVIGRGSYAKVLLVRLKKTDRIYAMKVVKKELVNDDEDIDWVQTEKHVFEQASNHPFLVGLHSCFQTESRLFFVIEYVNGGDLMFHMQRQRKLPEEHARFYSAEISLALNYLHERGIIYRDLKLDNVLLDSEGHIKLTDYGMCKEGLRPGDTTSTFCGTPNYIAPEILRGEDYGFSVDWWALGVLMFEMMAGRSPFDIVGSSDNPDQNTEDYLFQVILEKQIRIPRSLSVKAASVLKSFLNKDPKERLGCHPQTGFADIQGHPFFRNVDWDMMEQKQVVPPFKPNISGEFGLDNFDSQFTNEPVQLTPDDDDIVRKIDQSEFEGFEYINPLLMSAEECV
The note with it: kinase PKCι; 1 µmol/L single concentration; read-out: %-inhibition at 1 µmol/L, PKCι.

In assay [5] the target is panel of 255 wild-type kinases (Homo sapiens, UniProt P00519). The settings on record: ABL kinase assay; 1 µmol/L single concentration; read-out: %-inhibition ABL.
The target of assay [6] is panel of 255 wild-type kinases (Homo sapiens, UniProt Q9H4A3). The note with it: kinase WNK1; 1 µmol/L single concentration; read-out: %-inhibition at 1 µmol/L, WNK1.
Assay [7] has as its target panel of 255 wild-type kinases (Homo sapiens, UniProt P49840). The note with it: kinase GSK3α; 1 µmol/L single concentration; read-out: %-inhibition at 1 µmol/L, GSK3α.
Assay [8] deals with panel of 255 wild-type kinases (Homo sapiens, UniProt Q05397). The note with it: kinase FAK; 1 µmol/L single concentration; read-out: %-inhibition at 1 µmol/L, FAK.
For assay [9], the target named is panel of 255 wild-type kinases (Homo sapiens, UniProt Q00535). The note with it: CDK5/p25 kinase assay; 1 µmol/L single concentration; read-out: %-inhibition CDK5/p25.
Assay [10] has as its target panel of 255 wild-type kinases (Homo sapiens, UniProt P08631). The settings on record: kinase HCK; 1 µmol/L single concentration; read-out: %-inhibition at 1 µmol/L, HCK.
The target of assay [11] is panel of 255 wild-type kinases (Homo sapiens, UniProt P29597). The settings on record: kinase TYK2; 1 µmol/L single concentration; read-out: %-inhibition at 1 µmol/L, TYK2.
Assay [12] deals with panel of 255 wild-type kinases (Homo sapiens, UniProt P78368). The note with it: kinase CK1γ2; 1 µmol/L single concentration; read-out: %-inhibition at 1 µmol/L, CK1γ2.
Assay [13] has as its target panel of 255 wild-type kinases (Homo sapiens, UniProt Q9NYA1). The settings on record: kinase SPHK1; 1 µmol/L single concentration; read-out: %-inhibition at 1 µmol/L, SPHK1.
For assay [14], the target named is panel of 255 wild-type kinases (Homo sapiens, UniProt P10721). The settings on record: kinase KIT; 1 µmol/L single concentration; read-out: %-inhibition at 1 µmol/L, KIT.
The target in assay [15] is panel of 255 wild-type kinases (Homo sapiens, UniProt P19784). The settings on record: kinase CK2α2/β; 1 µmol/L single concentration; read-out: %-inhibition at 1 µmol/L, CK2α2/β.

For the compound `Cc1nc(NC(=O)N2CCC[C@H]2C(N)=O)sc1-c1ccnc(C(C)(C)C(F)(F)F)c1` [alpelisib], the inhibition at 1 µM in assay [1] is 10%; in [2], 2.66%; in [3], -20%; in assay [4], 21%; in assay [5] it was 16%; in [6] it was -4%. Besides, the inhibition at 1 µM in assay [7] is -2.64%; in assay [8] it was 3.69%; in [9], -14%; in assay [10], 4.56%; in assay [11], -4%; in assay [12], -1.58%. The inhibition at 1 µM in assay [13] was -5.44%; in assay [14], 5%; in assay [15], -1.53%.
Take `Cn1cc(-c2cc3c(N4CCN(c5ncc([C@@](C)(N)c6ccc(F)cc6)cn5)CC4)ncnn3c2)cn1` [avapritinib]: the inhibition at 1 µM in assay [1] was 7%; in assay [2] it was 37%; in assay [3], -19%; in [4] it was 0.376%; in assay [5], 57%; in assay [6], -5.32%. For the same compound, the inhibition at 1 µM in assay [7] is 3%; in assay [8] it was -2.5%; in assay [9] it was 11%; in assay [10], 52%; in assay [11], 16%; in assay [12], 7%. Also, the inhibition at 1 µM was -1.72% in [13], 100% in assay [14] and -1.79% in assay [15].
For the compound `Cn1cnc2c(F)c(Nc3ccc(Br)cc3F)c(C(=O)NOCCO)cc21` [binimetinib], the inhibition at 1 µM in [1] is -5%; in assay [2] it was 3.18%; in [3], -0.56%; in assay [4] it was 15%; in assay [5] it was -1.53%; in assay [6] it was -3.5%. For the same compound, the inhibition at 1 µM in [7] is -2.8%; in assay [8] it was -1.33%; in assay [9], -21%; in [10] it was -8%; in assay [11] it was -4%; in assay [12], -0.416%. Besides, the values for the inhibition at 1 µM in assay [13], in [14] and in assay [15] were -26%, -0.242% and -1.89%, respectively.
On to `COc1cc2ncnc(Nc3ccc(F)c(Cl)c3)c2cc1NC(=O)/C=C/CN1CCCCC1` [dacomitinib], for which the inhibition at 1 µM in assay [1] was 5%; in [2], 39%; in assay [3], 6%; in assay [4] it was 31%; in [6], -4%; in [7], 1.45%. Moreover, the inhibition at 1 µM in assay [8] is -0.575%; in assay [9], -29%; in assay [10], 57%; in assay [11] it was 6.51%; in [12], -1.63%; in assay [13], -15%. Moreover, the values for the inhibition at 1 µM in assay [14] and in [15] were -10% and 1.11%, respectively.
Turning to `CN1CCN(c2ccc(C(=O)Nc3n[nH]c4ccc(Cc5cc(F)cc(F)c5)cc34)c(NC3CCOCC3)c2)CC1` [entrectinib], the inhibition at 1 µM is 14% in assay [1]; 7% in assay [2]; -21% in [3]; 34% in [4]; 77% in [5]; -2.18% in assay [6]. The inhibition at 1 µM was -0.424% in [7]; 91% in [10]; 95% in assay [11]; 0.857% in assay [12]; -4% in [13]; 21% in assay [14]. The inhibition at 1 µM in assay [15] turned out to be 2%.
In the case of `CCN1CCN(c2ccc(Nc3cc(N(C)C(=O)Nc4c(Cl)c(OC)cc(OC)c4Cl)ncn3)cc2)CC1` [infigratinib], the inhibition at 1 µM in assay [1] was 3.65%; in [2], 15%; in assay [3] it was -17%; in assay [4], -10%; in assay [5], 10%; in assay [6], -4.6%. In addition, the inhibition at 1 µM in assay [7] is -1.67%; in [8], -4.48%; in assay [9], -17%; in assay [10] it was 22%; in assay [11], -3%; in [12], -12%. Further, the results for the inhibition at 1 µM in assay [13] and in assay [15] were -14% and -2.17%, respectively.
Take `C[C@H]1Oc2cc(cnc2N)-c2c(nn(C)c2C#N)CN(C)C(=O)c2ccc(F)cc21` [lorlatinib]: the inhibition at 1 µM was 10% in assay [1]; 1% in assay [2]; -18% in assay [3]; 19% in assay [4]; -2.34% in assay [5]; 0.826% in [6]. The inhibition at 1 µM in assay [7] is -2.36%; in assay [9] it was -9%; in assay [10], 42%; in assay [11], 5%; in assay [12] it was 2.14%; in assay [13], -7%. Also, the inhibition at 1 µM in [14] is 4.22%; in [15] it was -2.41%.
On to `CCn1c(=O)c(-c2cc(NC(=O)Nc3ccccc3)c(F)cc2Br)cc2cnc(NC)cc21` [ripretinib], for which the inhibition at 1 µM was 6% in assay [1]; 13% in [2]; -3.65% in assay [3]; 21% in assay [4]; 18% in [5]; -5% in assay [6]. Further, the inhibition at 1 µM was -0.0405% in [7]; 0.833% in assay [8]; -19% in assay [9]; 60% in assay [10]; 4.46% in [11]; -2.31% in [12]. Also, the values for the inhibition at 1 µM in assay [13] and in [15] were -19% and -0.613%, respectively.
Regarding `C=CC(=O)N1CCC([C@@H]2CCNc3c(C(N)=O)c(-c4ccc(Oc5ccccc5)cc4)nn32)CC1` [zanubrutinib], the inhibition at 1 µM in [1] was 0.329%; in assay [2], 5.63%; in assay [3], -8%; in assay [4], -8%; in [5], -4.52%; in assay [6], 0%. The inhibition at 1 µM is -7% in assay [7]; 13% in assay [8]; -17% in assay [9]; -2.32% in [11]; -7% in assay [12]; -15% in assay [13]. Also, the inhibition at 1 µM in assay [14] is -4.47%; in assay [15], -4%.

For the origin of these results see PMC9516332 (Frontiers in Oncology, 2022).
